Source: patent US20080220416A1, “Compositions for Inhibiting Cell Growth and Inducing Apoptosis in Cancer Cells and Methods of Use Thereof” (THE BOARD OF TRUSTEES OF THE UNIVERSITY OF ILLINOI, priority 2004, published 2008)
Square brackets hold non-standard residues; d marks the D form. Peptide text beside a SMILES is read from it. * marks the point of attachment. Nle = CCCC[C@H](N)C(=O)O; Cbz = O=C(OCc1ccccc1)*

Legend:
SK-MeI-28 melanoma cells = experiment: Dosing study versus chemotherapeutic agents, killing of SK-MeI-28 melanoma cells; assay type: cell-based, human; settings: SK-MeI-28, mutated p53
Description: An initial dosing study comparing z-Leu-Leu-Nle-CHO against three different chemotherapeutic agents (i.e., adriamycin, etoposide, and cisplatin) was performed to evaluate the relative effectiveness of z-Leu-Leu-Nle-CHO in killing melanoma cells. In agreement with a previous report by Soengas, M. S. et al., 2001, Nature 409.207-211, SK-MeI-28 cells, carrying a mutated p53, were relatively resistant to killing by adriamycin, as well as to killing by other chemotherapeutic agents. For SK-MeI-28 melanoma cells, the maximal apoptotic response for adriamycin, etoposide, cisplatin, and z-Leu-Leu-Nle-CHO was 12.0%, 2.6%, 4.0%, and 29.4%, respectively. For RJ002L melanoma cells, the maximal apoptotic response for adriamycin, etoposide, cisplatin, and z-Leu-Leu-Nle-CHO was 23.9%, 12.7%, 3.4%, and 45.7%, respectively.

[1] = test system: T47D:C42 breast cancer cells; experiment: Cytotoxicity assay in T47D:C42 breast cancer cells; assay type: cell-based; settings: T47D:C:4:2; T47D:C42 (p53 wild-type, ERα-negative); 48 h; read-out: IC50, cell growth inhibition
Description: Cytotoxicity and growth of transfected cells were estimated by a standard assay used for cancer drug screening, through the total amount of TCA-precipitated cell proteins after drug treatment (Likhitwitayawuid, K et al., 1993, J Nat Prod 56:30-38): 200 μl of cell suspension (10^5 cells/ml) were added to each well in a 96-well plate. After incubation at, 37° C., in 5% CO2 (30 minutes to 72 hours depending on the time course chosen), 50 μl 50% trichloroacetic acid was added to each well. After incubation at 4° C. for 1 hour, precipitates were washed with water 4-5 times and air dried overnight. One hundred μl of SRB solution (0.4% sulforhodamine B in 1% acetic acid, filtered before use) was added to each well for 30 minutes. Wells were washed with 1% acetic acid 4-5 times and air dried. Two hundred μl 10 mM Tris base was added to each well. Plates were shaken for 5-10 minutes and OD at 490 nm (OD490) was recorded via ELISA reader. To assay matrix invasion, 300 μl of cell suspension (10^6 cells/mL in serum-free medium) were added to invasion inserts (BioCoat Matrigel Invasion Chambers, Becton Dickinson, Bedford, Mass.) and incubated for 22 hours at 37° C., 5% CO2. Cells were stained with 0.9% crystal violet in 10% ethanol for 20 minutes. […] After removal of the non-invading cells from the interior of the inserts, stained invading cells were lysed in 10% acetic acid and OD595 was determined. […]

[2] = test system: T47D:C42 breast cancer cells; experiment: z-Leu-Leu-Nle-CHO plus Paclitaxel, growth inhibition of T47D:C42 cells; assay type: cell-based, human; settings: 0-0.8 μM with Paclitaxel, 48 h
Description: Three different types of breast cancer cells were contacted with varying concentrations of z-Leu-Leu-Nle-CHO (0-0.8 μM) and the mitotic poison Paclitaxel (0.01-1 μM). MDA-MB231 cells were obtained from ATCC (Rockville, Md.). T47D:C42 and T47D:A18 cells were a kind gift of Debra Tonetti (University of Illinois-Chicago). MDA-MB231 cells were cultured in DMEM medium with 10% FBS. T47D:C42 and T47D:A18 cells were propagated in RPMI 1640 with 10% FBS, 100 μM non-essential amino acid and 6 ng/ml insulin. Gamma-secretase inhibitor z-Leu-Leu-Nle-CHO (Calbiochem 565750) was dissolved in DMSO, aliquoted and stored at −80° C. Paclitaxel (Sigma, St. Louis Mo.) was dissolved in DMSO, aliquoted and stored at −80° C.
To determine whether z-Leu-Leu-Nle-CHO treatment potentiates the effect of Paclitaxel on human breast cancer cells, MDA-MB231, T47D:C42 and T47D:A18 cells were treated for 48 h with 0-0.8 μM z-Leu-Leu-Nle-CHO and various concentrations of Paclitaxel (0.008-1 μM) Following the z-Leu-Leu-Nle-CHO and Paclitaxel treatment, the cells were tested for growth inhibition as described above in Example 13.

CaSki cells = experiment: LY411,575 combinations in CaSki cells, growth inhibition and isobologram analysis; assay type: cell-based, human; settings: CaSki
Description: To evaluate the possibility that inhibition of Notch signaling may sensitize advanced cervical cancers to the effect of cisplatin chemotherapy because Notch-1 protects these cells from apoptosis through the AKT and NF-κB pathways, a non-peptide, benzodiazepine gamma-secretase inhibitor, LY411,575 (Wong et al., 2004, J Biol. Chem. 279:12876-82) was tested in combination with a AKT inhibitor (AKT inhibitor I) or a proteasome inhibitor (MG-132) for effects on cell growth. The latter class of drugs is thought to act primarily by preventing NF-KB activation (Adams, J, 2002, Curr Opin Oncol 14:628-634; Richardson, P, 2003, Cancer Treat Rev 29 Suppl 1:33-39) caused by proteasome-mediated degradation of IκB.
To determine whether LY411,575 potentiates the effect of AKT inhibitor I or MG-132, CaSki cells were treated with (a) LY411,575 (6.25 μM to 50 μM) and AKT inhibitor 1 (0.5 μM to 75 μM), or (b) LY411,575 (1.5 μM to 200 μM) and MG-132 (0.05 μM to 0.2). Following the drug treatment, the cells were tested for growth inhibition as described above. LY411,575 was synthesized according to methods well known in the art (e.g., see WO-09828268, which is incorporated by reference), and AKT inhibitor I and MG-132 were purchased from Calbiochem.
The IC50 values of LY411,575 in the presence of various concentrations of AKT inhibitor I or MG-132 were measured. […]

| Compound | maximal apoptotic response (SK-MeI-28 melanoma cells) [%] | IC50 [1] [nM] | effect on Paclitaxel cell growth inhibition [2] | combination with LY411,575 in cytotoxicity assays / isobologram (CaSki cells) |
| --- | --- | --- | --- | --- |
| CCCC[C@@H](C=O)NC(=O)[C@H](CC(C)C)NC(=O)[C@H](CC(C)C)NC(=O)OCc1ccccc1 [z-Leu-Leu-Nle-CHO, N-benzyloxycarbonyl-leucyl-leucyl-norleucinal] (Cbz-Leu-Leu-[Nle]-aldehyde) | 29.4 | 380 | potentiated the effects of Paclitaxel on cell growth inhibition |  |
| CC(C)C[C@@H](C=O)NC(=O)[C@H](CC(C)C)NC(=O)[C@H](CC(C)C)NC(=O)OCc1ccccc1 [MG-132, benzoxycarbonyl-Leucyl-Leucyl-Leucyl-aldehyde] (Cbz-Leu-Leu-Leu-aldehyde) |  |  |  | striking synergism |
